Results on one compound are retold here after US6596754B1, “Preventives/remedies for multiple organ failure” (Daiichi Pharmaceuticals Co., Ltd., priority 1998, dated 2003).

Common to all, as to type: in vivo, Rats (Slc: Wistar)
Assay [1] relates to LPS intravenous administration shock model. In words: LPS intravenous administration shock model, mortality. Particulars: for Mortality in terms of percentage(%) / Mortality: rats, LPS 20 mg/kg i.v., 24 hours after LPS; for Mortality in terms of percentage(%): control 100%; for Mortality: dead/total. The procedure:
Rats (Slc: Wistar, male, 10 weeks old, n=15) were anesthetized by halothane. Subsequently, lipopolysaccharide (LPS) (E. coli, 055: B5) (20 mg/2 ml/kg) was administered to each rat through the femoral vein. Immediately after administration, (2S)-2-[4-([(3S)-1-acetimidoyl-3-pyrrolidinyl]oxy)phenyl]-3-(7-amidino-2-naphthyl)propionic acid hydrochloride pentahydrate (hereinafter referred to as “Compound A”) was subcutaneously administered to each rat at a dose of 0.3, 1, or 3 mg/kg. The mortality for the rats was observed 24 hours after the administration of LPS.

A further assay deals with IL-6. In words: Hypercytokinemia: plasma IL-6 by ELISA after LPS administration. To be noted: rats, LPS 20 mg/kg i.v.; 1 or 3 mg/kg s.c.; six hours after LPS; FIG. 1; #p <0.1. On the procedure:
Rats (Slc: Wistar, male, 10 weeks old, n=7) were anesthetized by halothane. Subsequently, LPS (E. coli, 055: B5) (20 mg/2 ml/kg) was administered to each rat through the femoral vein. Immediately after administration, compound A was subcutaneously administered to each rats at a dose of 1 or 3 mg/kg. Six hours after administration of LPS, blood was collected from the abdominal aorta in the presence of citric acid, and plasma IL-6 was measured by ELISA.

The subject of assay [2] is liver function parameters (GOT, GPT, LDH, and T-BIL). In words: Liver disease: liver function parameters (GOT, GPT, LDH, T-BIL) after LPS administration. Particulars: six hours after LPS; for TBIL / GOT / GPT / LDH: rats, LPS 20 mg/kg i.v., Mean ± S.E. (n = 7); for TBIL: control 0.46 ± 0.15; for GOT: control 3404 ± 406; for GPT: control 3716 ± 496; for LDH: control 23847 ± 3225. The procedure:
Rats (Slc: Wistar, male, 10 weeks old, n=7) were anesthetized by halothane. Subsequently, LPS (E. coli, 055: B5) (20 mg/2 ml/kg) was administered to each rat through the femoral vein. Immediately after administration, compound A was subcutaneously administered to each rat at a dose of 0.3, 1, or 3 mg/kg. Six hours after LPS administration, blood was collected from the abdominal aorta in the presence of citric acid, and the blood was collected to measurement of liver function parameters (GOT, GPT, LDH, and T-BIL).

As for `CC(=N)N1CC[C@H](Oc2ccc([C@H](Cc3ccc4ccc(C(=N)N)cc4c3)C(=O)O)cc2)C1.Cl.O.O.O.O.O` [Compound A, (2S)-2-[4-([(3S)-1-acetimidoyl-3-pyrrolidinyl]oxy)phenyl]-3-(7-amidino-2-naphthyl)propionic acid hydrochloride pentahydrate], the “Effect on mortality for rats (in words)” value in assay [1] (0.3, 1, 3 mg/kg s.c., χ2 test p<0.001) was “dose-dependently decreases the mortality for rats”. In assay [1] (0.3 mg/kg s.c.), the “Mortality in terms of percentage(%)” value worked out at 80% and the Mortality is listed as 12/15. Also, in assay [1] (1 mg/kg s.c.), the “Mortality in terms of percentage(%)” value turned out to be 40% and the Mortality is 6/15. In assay [1] (3 mg/kg s.c.), the “Mortality in terms of percentage(%)” value came out at 7% and the Mortality is 1/15. Besides, the “Concentration of plasma IL-6 (in words)” value with IL-6 was “dose-dependently suppressed the increase in concentration of IL-6”. In addition, the “Effect on liver function parameters (in words)” value in assay [2] (0.3, 1, 3 mg/kg s.c.) is on record as “dose-dependently suppressed the increase in each liver function parameter”. For the same compound, in assay [2] (0.3 mg/kg s.c.), the TBIL is 0.48 ± 0.22 mg/dL, the GOT is 1939 ± 442 IU/L, the GPT came out at 1986 ± 467 IU/L and the LDH amounted to 11560 ± 2983 IU/L. For the same compound, in assay [2] (1 mg/kg s.c.), the TBIL was 0.20 ± 0.10 mg/dL, the GOT is on record as 1183 ± 281 IU/L, the GPT is listed as 1216 ± 352 IU/L and the LDH is on record as 6297 ± 2291 IU/L. In assay [2] (3 mg/kg s.c.), this compound displayed a TBIL of 0.10 ± 0.01 mg/dL, a GOT of 364 ± 42 IU/L, a GPT of 189 ± 22 IU/L and an LDH of 972 ± 186 IU/L.
